Measured values as given in paper PMC12056667 (Chemical Science, 2025).

Key:
Tet(X4) [1] = target: T1, Tet(X4) (Escherichia coli, UniProt A0A3T0V9Y5); test: biochemical; conditions: 20 μM tigecycline, 50 nM Tet(X4), 100 μM NADPH, 5 mM MgCl2, 1 μM FAD, 100 mM TAPS pH 8.5; read-out: IC50, UPLC assay
Description: We then tested the binding of reported type 1 TDase inhibitors to Tet(X4) (Fig. 3f, ESI Fig. S17 ^†).[33,38,39] […] We also developed a complementary endpoint activity assay where the turnover of tigecycline by Tet(X4) in a 96-well plate was quenched by addition of 1%v/v formic acid and analysed chromatographically. The peak integrals of tigecycline and its hydroxylated degradation product at 254 nm following UPLC analysis were measured to determine turnover (Fig. 5a).
[…] A 3-fold, 10-point dilution series of the substrates and inhibitors was made in DMSO with a top concentration of 10 mM, unless otherwise stated, and transferred to the enzyme solution using a CyBi-Well liquid-handling robot (CyBio), 1 μL per well. On each plate, a column of no enzyme negative controls and no inhibitor (DMSO only) positive controls were included. The plate was incubated at 30 °C for 15 min. A solution containing 100 mM TAPS (pH 8.5), 40 μM tigecycline and 200 μM NADPH was then dispensed, with 49 μL per well. The plate was incubated at 30 °C for 20 min at 600 rpm. 10 μL of 10%v/v formic acid solution was then dispensed into all wells. Samples were analysed using an ACQUITY H-Class PLUS UPLC instrument (Waters) equipped with a pre-equilibrated ACQUITY BEH C18 column ([…], […], Waters) using a gradient of 1–50%v/v acetonitrile with 0.1%v/v formic acid in water with 0.1%v/v formic acid over 1.83 minutes at a flow rate of 0.5 mL min^−1. Instrument control and data processing were performed using MassLynx V4.1 software. The peaks representing tigecycline and 11a-hydroxy-tigecycline were integrated, used to calculate % conversion and then normalised between positive and negative controls. The normalised % response was plotted as a function of log10[Inhibitor], and the IC50 determined as described above.

Tet(X4) [2] = target: T1, Tet(X4); test: FP competitive displacement of probe 6; assay type: binding; conditions: IC50app, Tet(X4) (Polarization), 25 nM 6, 40 nM Tet(X4), 5 mM MgCl2, 1 μM FAD, 100 mM Tris pH 7.0, 0.01% Triton X-100
Description: A 2× solution containing 80 nM Tet(X4), 2 μM FAD and 10 mM MgCl2 in the assay buffer was dispensed into the first 22 columns of a 384-well black, non-binding microtiter plate (Greiner Bio-One), 12.5 μL per well, using a microplate reagent dispenser. A solution of 2 μM FAD and 10 mM MgCl2 in the assay buffer was dispensed into the remaining columns to serve as a no enzyme control. A 3-fold, 10-point dilution series of substrates and inhibitors was made in DMSO in a V-bottom 96-well plate (Greiner Bio-One) with a highest concentration of 5 mM or 0.5 mM. Into one column was added DMSO with no inhibitor or substrate, to serve as a positive control. Tigecycline was included as a reference on every plate to ensure reproducibility. 0.5 μL of each dilution was transferred in quadruplicate to the 384-well plate containing enzyme solution using a CyBi-Well liquid-handling robot (CyBio). A solution of 50 nM 6 in the assay buffer was then dispensed, with 12.5 μL per well. The plate was briefly centrifuged (1000 rpm), then incubated at ambient temperature for 30 min prior to measuring the FP. Data points were normalised between the positive and negative controls. Normalised % response was plotted as a function of log10([Inhibitor]), and the IC50^app was determined by fitting the data to the equation: Y = Bottom + (top-bottom)/(1 + 10^Log(IC50) − X) × HillSlope in GraphPad Prism 9.4.1, where Y = % response and X = log10([Inhibitor]). Wells with unusual fluorescence intensities were manually identified and removed from the analysis. […]

Structure (SMILES)	IC50 (Tet(X4) [1]) [µM]	IC50 (Tet(X4) [2]) [µM]
CC(=O)c1ccc2c(c1)N(CCCN1CCN(CCO)CC1)c1ccccc1S2 [Acetophenazine]	> 100	> 100
O=C(NCc1c(F)cc(F)cc1F)c1cn2c(c(O)c1=O)C(=O)N1[C@H]3CC[C@H](C3)O[C@@H]1C2 [Bictegravir]	76 ± 14	54.8 ± 10.6
